Patent US20090075974A1, “AGENT FOR PROPHYLAXIS AND TREATMENT OF PANCREATITIS” (UMN Pharma Inc., priority 2005, published 2009)
Read-outs that look alike come from different tables or passages of the source.

How the values were obtained:
[1] = tested on: mouse with cerulein-induced pancreatitis; test: Cerulein-induced acute pancreatitis in mouse: amylase and lipase activity in plasma; format: in vivo; conditions: for effect on amylase in blood of mice administered with cerulein / effect on lipase in blood of mice administered with cerulein: Example 1, FIG. 1, under the dorsal skin 15 min before first cerulein, ketanserin 3.2 mg/Kg; for inhibition rate of amylase activity: Example 2, FIG. 2, drug 3.2 mg/Kg
Method: Receptor subtypes involved in the onset of pancreatitis were examined with the use of antagonists of 5-HT2A receptor, 5-HT2B receptor, and 5-HT2C receptor. A mouse having acute pancreatitis induced by excessive administration of cerulein was used as an animal model. This model is not affected by food consumption, which is different from CDE pancreatitis, and thus it is possible to obtain constant pathologic features and analyze data more accurately.
An aqueous solution of cerulein (0.05 mg/Kg) was administered to a five-week-old mouse every one hour five times by hypodermic injection. Each 5-HT2 antagonist suspended in a solvent (0.5% methylcellulose in saline) was administered under the dorsal skin 15 minutes before the first administration of cerulein. […] Further, only the solvent was administered to the control group (group administered with cerulein alone) under the dorsal skin. One hour after the final administration, blood was collected, and amylase activity and lipase activity in the plasma were determined.
Effects of various 5-HT2A antagonists on amylase activity and lipase activity in plasma of cerulein-induced pancreatic mice were examined. […] Then the amylase activity and the lipase activity in plasma were determined.
Effects of various 5-HT2 antagonists on amylase activity and lipase activity in plasma of cerulein-induced pancreatic mice were examined. […] Then the amylase activity and the lipase activity in plasma were determined.

5-HT2B receptor = target: T1, 5-HT2B receptor (Homo sapiens, UniProt P41595); conditions: literature values, cited from earlier work
T1 construct: expressed in transfected cells; host or cells: CHO-K1 (membrane fractions)

5-HT2C receptor = target: T2, 5-HT2C receptor (Homo sapiens, UniProt P28335); conditions: literature values, cited from earlier work
T2 construct: expressed in transfected cells; host or cells: HEK-293 (membrane fractions)
T2 sequence (P28335 33-458): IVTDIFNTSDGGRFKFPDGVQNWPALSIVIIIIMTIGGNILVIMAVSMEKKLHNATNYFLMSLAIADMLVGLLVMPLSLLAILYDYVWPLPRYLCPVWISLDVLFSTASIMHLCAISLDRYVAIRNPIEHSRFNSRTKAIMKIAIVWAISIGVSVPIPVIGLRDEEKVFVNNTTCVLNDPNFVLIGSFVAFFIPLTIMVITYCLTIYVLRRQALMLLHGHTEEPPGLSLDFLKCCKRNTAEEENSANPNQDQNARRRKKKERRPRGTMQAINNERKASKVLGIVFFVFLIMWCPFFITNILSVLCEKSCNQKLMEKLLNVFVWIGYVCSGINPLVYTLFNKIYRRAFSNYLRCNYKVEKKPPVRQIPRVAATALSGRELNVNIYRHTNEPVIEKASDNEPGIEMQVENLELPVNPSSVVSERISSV

[2] = Bonhaus et al. (1995), second block of Table 1
[3] = plasma, cerulein-induced pancreatitis mouse

T1 sequence (P41595 whole entry): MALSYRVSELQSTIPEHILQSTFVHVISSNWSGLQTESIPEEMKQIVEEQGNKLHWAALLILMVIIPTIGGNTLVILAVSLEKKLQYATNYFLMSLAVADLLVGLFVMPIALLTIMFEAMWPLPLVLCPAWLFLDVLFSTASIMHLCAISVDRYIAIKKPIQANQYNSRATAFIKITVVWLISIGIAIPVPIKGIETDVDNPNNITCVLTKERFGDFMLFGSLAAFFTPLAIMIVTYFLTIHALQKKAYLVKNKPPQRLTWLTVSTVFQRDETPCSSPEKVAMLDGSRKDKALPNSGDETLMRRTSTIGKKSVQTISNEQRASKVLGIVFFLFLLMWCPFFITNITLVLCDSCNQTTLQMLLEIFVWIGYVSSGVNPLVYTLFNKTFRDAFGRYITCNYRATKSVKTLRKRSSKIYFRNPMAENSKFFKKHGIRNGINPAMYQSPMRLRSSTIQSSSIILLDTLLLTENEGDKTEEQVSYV

SMILES	effect on amylase in blood of mice administered with cerulein [1]	effect on lipase in blood of mice administered with cerulein [1]	inhibition rate of amylase activity [1, 3] [%]	further results
Cc1cc(NC(=O)Nc2ccc3c(ccn3C)c2)sn1 [SB204741]	didn't show any effect	didn't show any effect	–	5-HT2B pKi ± SEM (5-HT2B receptor; [2]): 7.1 ± 0.08; 5-HT2B pKi ± SEM (5-HT2B receptor; Knight et al. (2004)): 6.90 ± 0.27
OC(c1ccccc1)C1CCN(CCc2ccccc2)CC1 (stereo not drawn) [MDL11939]	–	–	−4	–
Cc1cc2c(cc1Cl)N(C(=O)Nc1ccc(Oc3cccnc3C)nc1)CC2 [SB242084]	didn't show any effect	didn't show any effect	–	–
Cc1nc2n(c(=O)c1CCN1CCC(c3noc4cc(F)ccc34)CC1)CCCC2 [risperidone]	–	–	52	–
O=C(CCCN1CCC2(CC1)C(=O)NCN2c1ccccc1)c1ccc(F)cc1 [spiperone]	–	–	–	5-HT2C pKi ± SEM (5-HT2C receptor; [2]): <6.00
O=C(c1ccc(F)cc1)C1CCN(CCn2c(=O)[nH]c3ccccc3c2=O)CC1 [ketanserin]	significantly decreased	significantly decreased	37	–
CN1C[C@H](CNC(=O)OCc2ccccc2)C[C@@H]2c3cccc4c3c(cn4C)C[C@H]21 [Metergoline, metergoline]	–	–	–	inhibition rate of amylase ([1]; Example 3, FIG. 3, drug 3.2 mg/kg, plasma, cerulein-induced pancreatitis mouse): 30%
O=C1NCN(c2ccccc2)C12CCN(CCCOc1ccc(F)cc1)CC2 [AMI-193]	–	–	17	5-HT2C pKi ± SEM (5-HT2C receptor; Knight et al. (2004)): 5.81 ± 0.16
